Data on 2 molecules can be found in patent publication US20260306464A1, “LINAPRAZAN GLURATE FOR TREATING GASTROESOPHAGEAL REFLUX DISEASE (GERD)” (Cinclus Pharma Holding AB (publ), priority 2023, published 2026).

A short description of data set [1]: Dynamic vapour sorption (DVS) analysis. The data set is classed as physicochemical. The protocol: In some embodiments, Form 1 of the HCl salt of linaprazan glurate is stable at a relative humidity up to 90% at a temperature of 25° C.
Data set [2] can be described thus: LEED study: endoscopic healing of erosive esophagitis / LA grade improvement after 4 weeks. The class given is in vivo, human. The conditions noted are these: lansoprazole 30 mg QD. The source says: The severity of esophagitis is typically indicated using the Los Angeles (LA) classification of reflux esophagitis, which is based on an endoscopic assessment of the patient. The LA grade scoring system divides reflux esophagitis into four categories (LA grade A to D) based on the extent of esophageal mucosal breaks. […] LA grade C esophagitis is defined as one or more mucosal breaks that are continuous between the tops of two mucosal folds, but which involves less than 75% of the esophageal circumference. The most severe form, LA grade D esophagitis, is defined as one or more mucosal breaks involving at least 75% of the esophageal circumference (Lundell et al., Gut 1999, vol. 45, p. 172-180).
As used herein, the terms “improvement of the LA grade” and “LA grade improvement” refer to one or more steps from one LA grade to a lower LA grade (such as from grade D to grade C, B or A) or to being healed. In some embodiments, the improvement of the LA grade is 1 step. In some embodiments, the improvement of the LA grade is 2 steps. In some embodiments, the improvement of the LA grade is 3 steps. In some embodiments, the improvement of the LA grade is 4 steps.
The study included patients with erosive esophagitis (eGERD). Patients were divided into two cohorts, one with patients having moderate to severe eGERD (LA grade C/D) and one with patients having milder eGERD (LA grade A/B) with a history of only partial response to PPI-treatment. The primary endpoint of the study was to support dose selection of linaprazan glurate for the phase III program in eGERD, through central assessment of healing of erosive esophagitis after four weeks of treatment. The sample size, i.e., the number of patients needed, for measuring dose related efficacy was based on the patient cohort with moderate to severe eGERD. After initial endoscopy and other screening procedures, 248 patients were randomized equally into one of five treatment groups, receiving either four weeks treatment with linaprazan glurate in four dose levels, or four weeks lansoprazole in the approved standard eGERD healing dose. Thereafter, an endoscopic evaluation of healing was performed, where healing was defined as no presence of esophageal erosions, i.e., no erosive damage to the esophageal mucosa. After the endoscopic evaluation, all patient groups received lansoprazole for four weeks in a maintenance phase. A retrospective central review of the endoscopy findings was performed, and 162 patients were available for evaluation of the primary endpoint. All enrolled 248 patients were included in the safety analysis.
(§1) The study was a randomized, double-blind, active comparator-controlled study with a parallel group design including four arms with linaprazan glurate and one arm with lansoprazole. Pharmacokinetic (PK) blood sampling pre-dose, close before the first and the second dose administration was performed at Day 7, Day 14 and Day 28 visits days in all patients. 248 patients with erosive esophagitis due to GERD LA grade C or D and patients with erosive esophagitis due to GERD LA grade A or B with at least partial symptom response but still endoscopically unhealed after 8 weeks history of standard treatment healing course with PPI, were randomized.
(§2) Randomization to one of the treatments with linaprazan glurate 25 mg, 50 mg, 75 mg, 100 mg twice daily (BID), or lansoprazole 30 mg once daily (QD) was based on a 1:1:1:1:1 scheme. One site could not enroll more than about 20% of the overall number of patients (48 patients per site).
The duration of each patient's participation in the study, including screening, blind treatment period and open-label treatment period, was approximately 60 days. The patients were randomized for 4 weeks (28 days, −2/+5 days) of double-blind treatment and were provided with IMP for 35 days (including one additional blister pack dispensed at Visit 2/Day 0) to allow for treatment up to the visit window. […]

A short description of data set [3]: LEED study: heartburn assessed by mRESQ-eDiary. The data set is classed as in vivo, human.
Source text: Relief of reflux-related symptoms may be assessed based on the modified Reflux Symptom Reflux Questionnaire-electronic Diary (mRESQ-eDiary), which is an electronic symptom diary developed for use in partial responders to proton pump inhibitors. mRESQ-eD has three domains (i.e., heartburn, other GERD signs/symptoms and regurgitations/reflux) and eight items (Andrae et al., Clin. Transl. Gastroenterol. 2020, 11(1): e00117).
as §1, §2
The duration of each patient's participation in the study, including screening, blind treatment period and open-label treatment period, was approximately 60 days. The patients were randomized for 4 weeks (28 days, −2/+5 days) of double-blind treatment and were provided with IMP for 35 days (including one additional blister pack dispensed at Visit 2/Day 0) to allow for treatment up to the visit window. […] Following the endoscopic evaluation, all patients received subsequent 4 weeks of open-label treatment with lansoprazole 30 mg QD. Repeated symptom evaluation to detect symptom pattern was assessed during this period.
Four doses of linaprazan glurate (25 mg, 50 mg, 75 mg, 100 mg, and dummies) were administered as tablets twice daily. The active comparator lansoprazole 30 mg and its dummy were administered as capsules once daily in the morning. The study drugs were taken with 100 mL of noncarbonated water at least 30 minutes prior to meals. The duration of double-blind treatment was 28 days −2/+5 days. To blind treatment, each patient received 2 tablets (containing doses of linaprazan glurate (LG) or its dummy) and one capsule (containing lansoprazole or its dummy) in the morning and 2 tablets (containing doses of linaprazan glurate (LG) or its dummy) in the evening, according to the scheme below:
A secondary objective of the study was the safety and tolerability of the four dose levels of linaprazan glurate and lansoprazole, with lansoprazole serving as the active comparator. Another secondary objective of the study was the reflux related symptom pattern during the initial 4 weeks treatment with four dose levels of linaprazan glurate and with lansoprazole, and the symptom pattern during the subsequent additional 4 weeks (weeks 5-8) open-label treatment with lansoprazole 30 mg QD. Heartburn-free 24-hour days and 24-hour days with at most mild heartburn symptoms were assessed based on modified eDiary (mRESQ-eD), including splits into day- and nighttime evaluations.
Reflux related symptoms were assessed based on a modified RESQ-eDiary (mRESQ-eD). Patients were asked to report every 12-hours, once before the morning dose and once before the evening dose of the Investigational Medicinal Product (IMP).

Data set [4] can be described thus: LEED study: safety and tolerability (adverse events). Conditions: TEAE, LAN 30 mg QD.
Where [5] appears, read: week 4, erosive patients all LA grades, LAN 30 mg QD (N = 20).

The structures appear in SMILES notation.

For `Cc1cccc(C)c1CNc1cc(C(=O)NCCOC(=O)CCCC(=O)O)cn2c(C)c(C)nc12`, the water uptake entry in data set [1] (90% RH) is “about 0.2%”. Further, the “water content of the crystals on humidity changes” value in data set [1] (about 30% to about 80% RH) is on record as “remains substantially constant”. Also, in data set [1] (dynamic vapour sorption), the hygroscopicity entry is on record as “very low hygroscopicity”.
Regarding `Cc1c(OCC(F)(F)F)ccnc1C[S+]([O-])c1nc2ccccc2[nH]1` (centres unmarked) [lansoprazole, reference compound], the four-week healing rate in data set [2] (LA grade A/B) stood at 81%. In data set [2] (LA grade A/B/C/D, 4 weeks, FIG. 8), the healing rate is 69%. In data set [2] (LA grade C/D, 4 weeks, FIG. 5), the “mean LA grade improvement” value is reported as 2.1. In addition, the four-week healing rate in data set [2] (LA grade C/D) amounted to 38%. The “heartburn severity, rank among groups” value in data set [3] (FAS Erosive, first week, morning and evening, lansoprazole 30 mg QD) is given as “highest heartburn severity”. For the same molecule, the “severity grade of heartburn, rank among groups” value in data set [3] (FAS, first week, morning and evening, lansoprazole 30 mg QD) was “highest severity grade of heartburn”. In data set [3] (LA Grade A/B, week 4, lansoprazole 30 mg QD), the “heartburn-free days, rank among groups” value is “most heartburn-free days”. In addition, the “heartburn-free days, rank among groups” value in data set [3] (LA Grade A/B, week 6 open-label, lansoprazole group) was “highest”. The “heartburn-free days, rank among groups” value in data set [3] (LA Grade C/D, week 2-4, lansoprazole 30 mg QD) is listed as “lowest percentage of heartburn-free days”. In addition, in data set [3] (LA Grade C/D, week 5-8 open-label, lansoprazole group), the “heartburn-free days, rank among groups” value is “lowest percentage of heartburn-free days”. Also, in data set [3] (setting [5]), the “% at most mild symptoms 24-hour days (mean)” value is 88%, the “% heartburn-free 24-hour days (mean)” value amounted to 52%, the “Patients (%) totally free from heartburn” value is listed as 32% and the “Patients (%) with at most mild heartburn” value is 79%. The “Patients (%) with non-mild heartburn” value in data set [3] (setting [5]) stood at 21%. Further, in data set [4], the “COVID-19 (%)” value was determined as 4.0%, the COVID-19 events was determined as 2 events, the “Constipation (%)” value came to 0.0% and the Constipation events is reported as 0 events. In data set [4], the “Headache (%)” value worked out at 2.0%, the Headache events is 1 events, the “Nausea (%)” value was determined as 8.0% and the Nausea events came to 4 events.
